Assay results reported in US6392055B1, “Synthesis and biological evaluation of analogs of the antimitotic marine natural product curacin A” (The University of Pittsburgh, priority 2000, dated 2002).
Like-named read-outs stand apart in the source and are kept apart here.

Legend:
PC-3 cells = test: Growth inhibition of prostate carcinoma cells (MTS); format: cell-based, human
MDA-MB231 cells = test: Growth inhibition of breast carcinoma cells (MTS); format: cell-based, human
2008 cells = test: Growth inhibition of ovarian carcinoma cells (MTS); format: cell-based, human
[1] = test system: isolated bovine brain tubulin; test: Inhibition of GTP/glutamate-induced tubulin polymerization (turbidimetric, 30° C.); format: biochemical; conditions: for % TPI 5 μM / Percent Tubulin Polymerization Inhibition (TPI), 5 μM: 5 μM compound
[2] = target: tubulin (colchicine site); test: Inhibition of [3H]colchicine binding to tubulin; set-up: species or system bovine; conditions: for IC50: 5 μM [3H]colchicine, 1 μM tubulin; for % CBI 5 μM, (30° C.) / % CBI 5 μM, 37° C. / Percent Colchicine Binding Inhibition (CBI), 5 μM: 5 μM compound; for % CBI 5 μM, (30° C.) / % CBI 50 μM, (30° C.): 30° C. (values in parentheses); for % CBI 50 μM, (30° C.) / % CBI 50 μM, 37° C. / Percent Colchicine Binding Inhibition (CBI), 50 μM: 50 μM compound
Method: Assays to determine whether 15mix-17mix inhibited binding of [^3H]colchicine to tubulin at both 30° C. and 37° C. were performed. This was accomplished using methods described previously. Kang, G.-J.; Getahun, Z.; Muzaffar, A.; Brossi, A.; Hamel, E. J. Biol. Chem. 1990, 265, 10255; Verdier-Pinard, P.; Lai, J.-Y.; Yoo, H.-D.; Yu, J.; Marquez, B.; Nagle, D. G.; Nambu, M.; White, J. D.; Falck, J. R.; Gerwick, W. H.; Day, B. W.; Hamel, E. Mol. Pharmacol. 1998, 53, 62. Briefly, 5 μM [^3H]colchicine (2.3 TBq/mmol), drug (1, 5, 10, 50, or 250 μM), or vehicle (DMSO, 5% v/v) were incubated at 30° C. for 15 minutes or at 37° C. for 10 minutes with 1 μM tubulin in the presence of 1 M monosodium glutamate, 0.1 M glucose-1-phosphate, 1 mM MgCl2, 1 mM GTP, and 0.5 mg/mL bovine serum albumin. The solutions were filtered through two stacks of DEAE-cellulose filters and the radioactivity in the filtrate was determined by scintillation spectrometry. Each series of determinations included positive controls of 1, 5, and/or 50 μM curacin A.

[3] = Homo sapiens, PC-3, 48 h, read-out: GI50 PC-3 (48 h)
[4] = Homo sapiens, MDA-MB-231, 48 h, read-out: GI50 MDA-MB231 (48 h)
[5] = Homo sapiens, Ovarian carcinoma cell, 48 h, read-out: GI50 2008 (48 h)
[6] = read-out: 50% Tubulin Polymerization Inhibition Concentration (TPI) IC50, 30° C., 10 μM tubulin
[7] = incubation at 30° C. for 15 minutes, read-out: 50% Colchicine Binding Inhibitory Concentration (CBI), 30° C.
[8] = incubation at 37° C. for 10 minutes, read-out: 50% Colchicine Binding Inhibitory Concentration (CBI), 37° C.
[9] = 96 h, read-out: GI50 PC3 (prostate) 96 h
[10] = read-out: GI50 PC3 (prostate) 48 h, 48 h
[11] = 96 h, read-out: GI50 MDA-MB231 (breast) 96 h
[12] = read-out: GI50 MDA-MB231 (breast) 48 h, 48 h
[13] = 96 h, read-out: GI50 2008 (ovarian) 96 h
[14] = read-out: GI50 2008 (ovarian) 48 h, 48 h
[15] = 96 h, Table II prints no unit, read-out: GI50 PC3 96 h
[16] = read-out: GI50 PC3 48 h, 48 h, Table II prints no unit
[17] = 96 h, Table II prints no unit, read-out: GI50 MDA 96 h
[18] = read-out: GI50 MDA 48 h, 48 h, Table II prints no unit
[19] = 96 h, Table II prints no unit, read-out: GI50 2008 96 h
[20] = read-out: GI50 2008 48 h, 48 h, Table II prints no unit

GI50 (PC-3 cells; [9])	GI50 (PC-3 cells; [10])	GI50 (MDA-MB231 cells; [11])	GI50 (MDA-MB231 cells; [12])	GI50 (2008 cells; [13])	GI50 (2008 cells; [14])	% CBI 5 μM, (30° C.) [2]	% CBI 5 μM, 37° C. ([2]; 37° C.)	% CBI 50 μM, (30° C.) [2]	% CBI 50 μM, 37° C. ([2]; 37° C.)	SMILES	% TPI 5 μM [1]	also measured
–	–	–	–	–	–	–	–	–	–	COc1ccc(OC)c(C(O)CCC(C)=CC=CCCC=Cc2cc(OC)c(OC)c(OC)c2)c1 (stereo not drawn) [Compound 17f, (4E,6E,10Z)-11-(3,4,5-Trimethoxyphenyl)-4-methyl-1-(2,5-dimethoxy-phenyl)-2-ylundeca-4,6,10-trien-1-ol]	–	GI50 (PC-3 cells; [3]): > 50 µM; GI50 (MDA-MB231 cells; [4]): 9.7 ± 1 µM; GI50 (2008 cells; [5]): 22 ± 5 µM; IC50 [1, 6]: > 50 µM; IC50 [2, 7]: > 50 µM; IC50 [2, 8]: > 50 µM
> 50 µM	> 50 µM	> 50 µM	36 ± 22 µM	> 50 µM	> 50 µM	(7 ± 5) %	0 ± 17%	(7 ± 6) %	−52 ± 14%	C=CC[C@@H](CC/C(C)=C/C=C/CC/C=C\c1coc(C(C)(C)C)n1)OC [JRC2]	51%	–
–	–	–	–	–	–	–	–	–	–	COc1ccccc1C(O)CC/C(C)=C/C=C/CC/C=C\c1cc(OC)c(OC)c(OC)c1 (stereo not drawn) [Compound 19CR5]	–	GI50 (PC-3 cells; [15]): 1.12 ± 0.04 µM; GI50 (PC-3 cells; [16]): 0.596 ± 1.25 µM; GI50 (MDA-MB231 cells; [17]): 0.204 ± 0.046 µM; GI50 (MDA-MB231 cells; [18]): 0.086 ± 0.146 µM; GI50 (2008 cells; [19]): 0.199 ± 0.036 µM; GI50 (2008 cells; [20]): 0.204 ± 0.112 µM; Percent Tubulin Polymerization Inhibition (TPI), 5 μM [1]: 74.6%; Percent Colchicine Binding Inhibition (CBI), 5 μM [2]: 12.5 ± 8.1%; Percent Colchicine Binding Inhibition (CBI), 50 μM [2]: 68.7 ± 1.1 %
–	–	–	–	–	–	–	–	–	–	COc1ccccc1C(O)CCC(C)=CC=CCCC=Cc1cc(OC)c(OC)c(OC)c1 (stereo not drawn) [Compound 17d, (4E,6E,10Z)-11-(3,4,5-Trimethoxyphenyl)-4-methyl-1-(2-methoxy-phenyl)-2-ylundeca-4,6,10-trien-1-ol]	–	GI50 (PC-3 cells; [3]): 0.62 ± 0.2 µM; GI50 (MDA-MB231 cells; [4]): 0.34 ± 0.03 µM; GI50 (2008 cells; [5]): 0.33 ± 0.02 µM; IC50 [1, 6]: 1.2 µM; IC50 [2, 7]: 9 ± 5 µM; IC50 [2, 8]: 9 ± 4 µM
> 50 µM	> 50 µM	> 50 µM	> 50 µM	> 50 µM	> 50 µM	(−10 ± 10) %	−30 ± 6%	(18 ± 6) %	−30 ± 7%	COc1cc(C=NOCC2CC2CCC(C)c2cccs2)cc(OC)c1OC (stereo not drawn) [JRoxime3]	3%	–
> 50 µM	> 50 µM	> 50 µM	> 50 µM	> 50 µM	> 50 µM	(9 ± 5) %	−39 ± 7%	(−12 ± 9) %	−62 ± 5%	C=CC[C@@H](CC[C@@]1(C)C[C@H]1[C@H]1C[C@@H]1CC/C=C\[C@@H]1CSC([C@@H]2C[C@@H]2C)=N1)OC [JR DCCA]	0%	–
–	–	–	–	–	–	–	–	–	–	COc1ccc(/C=C\CC/C=C/C=C(\C)CCC(O)c2cccs2)c(OC)c1 (stereo not drawn) [Compound 19AR2]	–	GI50 (PC-3 cells; [15]): 37.3 ± 6.5 µM; GI50 (PC-3 cells; [16]): > 50 µM; GI50 (MDA-MB231 cells; [17]): 7.18 ± 4.67 µM; GI50 (MDA-MB231 cells; [18]): 24 ± 1.2 µM; GI50 (2008 cells; [19]): 25.9 ± 2.1 µM; GI50 (2008 cells; [20]): 23.8 ± 1.1 µM; Percent Tubulin Polymerization Inhibition (TPI), 5 μM [1]: 51.8%; Percent Colchicine Binding Inhibition (CBI), 1 μM ([2]; 1 μM compound): −0.7 ± 7.5%; Percent Colchicine Binding Inhibition (CBI), 5 μM [2]: −2.7 ± 6.5%; Percent Colchicine Binding Inhibition (CBI), 50 μM [2]: −31.7 ± 7.8 %

SMILES	GI50 (PC-3 cells; [9])	GI50 (PC-3 cells; [10])	GI50 (MDA-MB231 cells; [11])	GI50 (MDA-MB231 cells; [12])	GI50 (2008 cells; [13])	GI50 (2008 cells; [14])	% CBI 5 μM, (30° C.) [2]	% CBI 5 μM, 37° C. ([2]; 37° C.)	% CBI 50 μM, (30° C.) [2]	% CBI 50 μM, 37° C. ([2]; 37° C.)	% TPI 5 μM [1]	also measured
COc1cc(/C=N\OC/C=C/C=C(\C)CCC(O)c2cccs2)cc(OC)c1OC (stereo not drawn) [JRoxime1]	0.53 ± 0.39 µM	0.25 µM	0.38 ± 0.2 µM	0.12 ± 0.1 µM	0.34 ± 0.29 µM	0.24 ± 0.18 µM	(48 ± 12) %	53 ± 2.2%	(57 ± 15) %	37 ± 8%	100%	GI50 (PC-3 cells; read-out: GI50 prostate (PC3), 48 hours of continuous drug exposure, 48 hours continuous exposure): 0.25 ± 0.08 µM; GI50 (MDA-MB231 cells; read-out: GI50 breast (MDA-MB231), 48 hours of continuous drug exposure, 48 hours continuous exposure): 0.12 ± 0.1 µM; GI50 (2008 cells; read-out: GI50 ovarian (2008), 48 hours of continuous drug exposure, 48 hours continuous exposure): 0.24 ± 0.18 µM; IC50 ([1]; 30° C. turbidimetric assay, N=2 over 4 concentrations, read-out: IC50, inhibition of GTP/glutamate-induced assembly of tubulin): 0.17 ± 0.09 µM; displacement of pre-bound [3H]colchicine from tubulin, 30° C. ([2]; equimolar (5 μM) concentration, 30° C.): 48±12%; displacement of pre-bound [3H]colchicine from tubulin, 37° C. ([2]; equimolar (5 μM) concentration, 37° C.): 53±2%
